Measured values as given in patent US7452887B2, “Quinoline- and isoquinoline-based compounds exhibiting ATP-utilizing enzyme inhibitory activity, and compositions, and uses thereof” (Amphora Discovery Corporation, priority 2004, dated 2008).

Assays:
Test in all cases: HTS ATP-utilizing enzyme assay, off-chip mobility-shift (Caliper HTS 250)
Format in all cases: biochemical
Conditions in all cases: test compound 10 μM, kinase listed = active (greater than six-sigma from the mean activity of inactive compounds)
[1] = molecular target: MAPKAPK2 (Homo sapiens, UniProt P49137)
Sequence of MAPKAPK2 (P49137 whole entry): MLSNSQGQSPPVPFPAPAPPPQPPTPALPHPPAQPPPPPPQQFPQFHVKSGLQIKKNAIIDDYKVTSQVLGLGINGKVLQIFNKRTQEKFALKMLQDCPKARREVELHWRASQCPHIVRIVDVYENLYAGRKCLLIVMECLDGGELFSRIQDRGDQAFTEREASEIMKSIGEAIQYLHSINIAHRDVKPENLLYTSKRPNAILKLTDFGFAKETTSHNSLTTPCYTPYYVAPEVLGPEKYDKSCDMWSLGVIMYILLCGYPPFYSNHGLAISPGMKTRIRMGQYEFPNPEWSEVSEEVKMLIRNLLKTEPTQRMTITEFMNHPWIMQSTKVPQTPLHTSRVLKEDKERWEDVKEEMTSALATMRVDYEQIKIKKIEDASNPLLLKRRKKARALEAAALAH
How it was run: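 Phosphorylation of a peptide substrate was quantified by Caliper mobility-shift separation of substrate and product after 2.5 h at 20-22 °C, with compounds tested at 10 μM. Inhibition was normalized to EDTA-quenched (100%) and DMSO (0%) controls; six-sigma thresholds flagged actives.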

[2] = molecular target: ABL1 (Homo sapiens, UniProt P00519)
Sequence of ABL1 (P00519 whole entry): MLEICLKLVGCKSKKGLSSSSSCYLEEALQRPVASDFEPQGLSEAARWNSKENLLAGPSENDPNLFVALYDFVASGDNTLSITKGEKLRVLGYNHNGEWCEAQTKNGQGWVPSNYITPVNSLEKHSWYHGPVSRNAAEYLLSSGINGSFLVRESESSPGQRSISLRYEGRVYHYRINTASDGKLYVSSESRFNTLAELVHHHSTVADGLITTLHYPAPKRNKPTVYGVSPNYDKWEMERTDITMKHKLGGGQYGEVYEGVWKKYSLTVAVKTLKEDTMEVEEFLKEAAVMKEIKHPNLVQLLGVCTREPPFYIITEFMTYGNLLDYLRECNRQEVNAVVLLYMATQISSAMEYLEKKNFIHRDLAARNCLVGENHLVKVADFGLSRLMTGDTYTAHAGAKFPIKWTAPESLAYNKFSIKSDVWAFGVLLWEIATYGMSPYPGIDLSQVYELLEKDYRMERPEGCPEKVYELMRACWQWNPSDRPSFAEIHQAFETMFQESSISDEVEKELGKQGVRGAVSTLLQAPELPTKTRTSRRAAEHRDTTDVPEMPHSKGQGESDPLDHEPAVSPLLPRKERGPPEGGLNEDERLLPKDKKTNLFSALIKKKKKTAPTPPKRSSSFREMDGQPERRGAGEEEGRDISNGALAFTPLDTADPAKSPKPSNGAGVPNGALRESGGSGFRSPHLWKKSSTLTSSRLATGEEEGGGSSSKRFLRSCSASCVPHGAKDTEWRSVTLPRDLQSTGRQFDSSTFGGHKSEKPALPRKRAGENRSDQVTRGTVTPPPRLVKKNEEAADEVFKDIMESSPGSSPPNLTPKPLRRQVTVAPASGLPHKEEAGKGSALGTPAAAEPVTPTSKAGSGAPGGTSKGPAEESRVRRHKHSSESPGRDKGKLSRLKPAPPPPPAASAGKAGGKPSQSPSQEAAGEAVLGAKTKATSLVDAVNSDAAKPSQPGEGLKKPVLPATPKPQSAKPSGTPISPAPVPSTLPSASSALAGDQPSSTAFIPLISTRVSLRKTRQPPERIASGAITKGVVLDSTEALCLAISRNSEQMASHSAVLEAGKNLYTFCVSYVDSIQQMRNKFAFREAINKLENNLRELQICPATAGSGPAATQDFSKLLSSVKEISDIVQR
How it was run: (§1)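 Compounds were tested once at 10 μM against kinase with peptide substrate. After 2.5 hrs at 20° C. to 22° C., reactions were terminated with EDTA, and conversion was read as substrate/product ratio by mobility shift.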

[3] = molecular target: T1, PRAK (Homo sapiens, UniProt Q8IW41)
T1 sequence (Q8IW41 1-473): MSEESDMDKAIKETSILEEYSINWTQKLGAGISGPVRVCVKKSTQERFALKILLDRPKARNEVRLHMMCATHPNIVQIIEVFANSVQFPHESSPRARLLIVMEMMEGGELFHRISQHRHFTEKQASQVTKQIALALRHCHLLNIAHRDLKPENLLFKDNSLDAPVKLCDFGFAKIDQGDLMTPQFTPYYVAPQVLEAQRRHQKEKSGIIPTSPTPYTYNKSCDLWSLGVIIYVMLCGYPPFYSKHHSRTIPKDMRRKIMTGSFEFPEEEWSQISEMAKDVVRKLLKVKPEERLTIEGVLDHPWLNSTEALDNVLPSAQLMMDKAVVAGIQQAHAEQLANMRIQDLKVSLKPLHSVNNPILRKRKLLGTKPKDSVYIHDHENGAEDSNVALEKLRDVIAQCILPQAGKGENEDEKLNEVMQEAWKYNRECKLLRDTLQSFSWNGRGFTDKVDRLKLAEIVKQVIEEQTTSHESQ
How it was run: as §1

[4] = molecular target: LCK (Homo sapiens, UniProt P06239)
Sequence of LCK (P06239 whole entry): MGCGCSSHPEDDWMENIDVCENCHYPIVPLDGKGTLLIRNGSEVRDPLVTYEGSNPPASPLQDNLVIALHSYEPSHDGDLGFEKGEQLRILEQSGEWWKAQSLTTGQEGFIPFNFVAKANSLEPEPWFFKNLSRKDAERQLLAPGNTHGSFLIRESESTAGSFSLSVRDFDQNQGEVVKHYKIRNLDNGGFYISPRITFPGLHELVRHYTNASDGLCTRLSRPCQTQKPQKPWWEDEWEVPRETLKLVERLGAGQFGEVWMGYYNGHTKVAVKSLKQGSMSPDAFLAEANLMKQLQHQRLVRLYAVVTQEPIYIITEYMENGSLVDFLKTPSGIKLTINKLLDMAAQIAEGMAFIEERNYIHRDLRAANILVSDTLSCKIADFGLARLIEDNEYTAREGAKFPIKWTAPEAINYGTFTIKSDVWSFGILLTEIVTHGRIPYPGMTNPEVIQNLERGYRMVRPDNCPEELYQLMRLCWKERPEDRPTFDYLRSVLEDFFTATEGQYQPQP
How it was run: as §1

[5] = molecular target: LYNA (Homo sapiens, UniProt P07948)
Sequence of LYNA (P07948 whole entry): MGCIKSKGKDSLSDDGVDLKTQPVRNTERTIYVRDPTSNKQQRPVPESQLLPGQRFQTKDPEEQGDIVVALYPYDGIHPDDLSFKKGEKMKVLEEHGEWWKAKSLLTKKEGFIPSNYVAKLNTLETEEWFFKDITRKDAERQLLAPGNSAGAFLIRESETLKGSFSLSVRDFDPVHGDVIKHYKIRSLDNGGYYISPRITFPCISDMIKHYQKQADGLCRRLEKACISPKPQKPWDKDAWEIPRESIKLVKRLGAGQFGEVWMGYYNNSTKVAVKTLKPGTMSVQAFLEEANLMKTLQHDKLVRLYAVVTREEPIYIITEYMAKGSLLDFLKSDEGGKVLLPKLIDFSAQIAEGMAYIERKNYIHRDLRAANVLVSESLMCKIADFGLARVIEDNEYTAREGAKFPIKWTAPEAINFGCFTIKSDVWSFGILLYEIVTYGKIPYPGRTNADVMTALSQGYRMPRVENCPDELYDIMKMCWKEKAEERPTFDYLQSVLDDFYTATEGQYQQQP
How it was run: as §1

[6] = molecular target: T2, NEK2 (Homo sapiens, UniProt P51955)
T2 sequence (P51955 1-445): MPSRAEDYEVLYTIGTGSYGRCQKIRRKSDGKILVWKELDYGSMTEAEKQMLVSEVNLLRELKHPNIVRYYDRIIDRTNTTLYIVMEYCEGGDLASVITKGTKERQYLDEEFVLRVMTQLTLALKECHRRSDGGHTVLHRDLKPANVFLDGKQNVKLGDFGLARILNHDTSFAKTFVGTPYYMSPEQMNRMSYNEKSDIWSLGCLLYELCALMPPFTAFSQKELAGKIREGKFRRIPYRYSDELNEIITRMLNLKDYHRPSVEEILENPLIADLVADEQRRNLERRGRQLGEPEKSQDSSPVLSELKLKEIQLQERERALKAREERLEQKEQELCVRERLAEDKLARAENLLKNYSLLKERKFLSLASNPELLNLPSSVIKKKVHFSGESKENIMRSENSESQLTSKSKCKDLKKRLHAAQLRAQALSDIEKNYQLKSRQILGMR
How it was run: as §1

[7] = molecular target: PDGFR-α (Homo sapiens, UniProt P16234)
Sequence of PDGFR-α (P16234 24-1089): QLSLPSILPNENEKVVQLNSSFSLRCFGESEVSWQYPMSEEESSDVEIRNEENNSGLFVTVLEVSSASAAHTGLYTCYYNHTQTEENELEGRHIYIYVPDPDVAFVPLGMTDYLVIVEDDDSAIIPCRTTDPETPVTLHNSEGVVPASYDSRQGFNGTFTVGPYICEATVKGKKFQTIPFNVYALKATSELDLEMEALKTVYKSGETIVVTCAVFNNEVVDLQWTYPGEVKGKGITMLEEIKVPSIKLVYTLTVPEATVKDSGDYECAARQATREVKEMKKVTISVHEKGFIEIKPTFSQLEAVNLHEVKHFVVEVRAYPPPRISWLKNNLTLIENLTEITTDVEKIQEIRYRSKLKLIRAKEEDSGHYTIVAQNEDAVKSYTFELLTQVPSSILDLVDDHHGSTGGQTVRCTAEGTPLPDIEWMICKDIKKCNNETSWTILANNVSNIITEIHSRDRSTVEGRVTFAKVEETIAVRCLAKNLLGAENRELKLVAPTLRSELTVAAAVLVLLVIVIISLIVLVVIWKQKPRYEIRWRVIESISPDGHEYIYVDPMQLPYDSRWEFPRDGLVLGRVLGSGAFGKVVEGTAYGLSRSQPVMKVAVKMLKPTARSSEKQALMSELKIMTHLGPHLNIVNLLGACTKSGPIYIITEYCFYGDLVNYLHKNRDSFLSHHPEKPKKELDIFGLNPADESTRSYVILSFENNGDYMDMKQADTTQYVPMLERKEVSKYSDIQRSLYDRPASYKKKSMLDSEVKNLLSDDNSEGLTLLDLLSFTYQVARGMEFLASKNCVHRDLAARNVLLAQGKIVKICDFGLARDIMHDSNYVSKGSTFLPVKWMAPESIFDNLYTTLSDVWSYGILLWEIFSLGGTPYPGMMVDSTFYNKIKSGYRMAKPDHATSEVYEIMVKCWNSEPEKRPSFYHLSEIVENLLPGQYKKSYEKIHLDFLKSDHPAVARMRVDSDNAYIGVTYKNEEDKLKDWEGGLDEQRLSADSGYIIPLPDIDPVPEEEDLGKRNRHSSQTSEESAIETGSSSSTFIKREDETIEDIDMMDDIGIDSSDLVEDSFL
How it was run: as §1

[8] = molecular target: T3, BMX (Homo sapiens, UniProt P51813)
T3 sequence (P51813 1-675): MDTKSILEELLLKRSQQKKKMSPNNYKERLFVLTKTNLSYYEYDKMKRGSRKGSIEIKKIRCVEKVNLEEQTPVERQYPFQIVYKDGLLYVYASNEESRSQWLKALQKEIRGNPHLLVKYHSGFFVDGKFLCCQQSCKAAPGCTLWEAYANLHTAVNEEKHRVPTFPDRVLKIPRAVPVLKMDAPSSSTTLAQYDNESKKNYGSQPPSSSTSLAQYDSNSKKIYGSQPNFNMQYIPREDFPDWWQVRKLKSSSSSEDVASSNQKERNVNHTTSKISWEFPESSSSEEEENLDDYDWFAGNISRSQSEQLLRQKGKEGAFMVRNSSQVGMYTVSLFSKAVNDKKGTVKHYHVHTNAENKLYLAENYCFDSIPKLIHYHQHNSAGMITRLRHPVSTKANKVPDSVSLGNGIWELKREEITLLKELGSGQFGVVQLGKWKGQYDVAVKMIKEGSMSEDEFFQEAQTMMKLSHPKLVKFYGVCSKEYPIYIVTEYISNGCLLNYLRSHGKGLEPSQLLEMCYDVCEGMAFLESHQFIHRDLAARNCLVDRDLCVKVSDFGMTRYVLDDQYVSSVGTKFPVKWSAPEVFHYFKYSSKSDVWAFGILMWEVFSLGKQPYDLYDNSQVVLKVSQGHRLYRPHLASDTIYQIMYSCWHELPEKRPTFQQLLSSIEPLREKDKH
How it was run: as §1

[9] = molecular target: C-TAK1 (Homo sapiens, UniProt P27448)
Sequence of C-TAK1 (P27448 whole entry): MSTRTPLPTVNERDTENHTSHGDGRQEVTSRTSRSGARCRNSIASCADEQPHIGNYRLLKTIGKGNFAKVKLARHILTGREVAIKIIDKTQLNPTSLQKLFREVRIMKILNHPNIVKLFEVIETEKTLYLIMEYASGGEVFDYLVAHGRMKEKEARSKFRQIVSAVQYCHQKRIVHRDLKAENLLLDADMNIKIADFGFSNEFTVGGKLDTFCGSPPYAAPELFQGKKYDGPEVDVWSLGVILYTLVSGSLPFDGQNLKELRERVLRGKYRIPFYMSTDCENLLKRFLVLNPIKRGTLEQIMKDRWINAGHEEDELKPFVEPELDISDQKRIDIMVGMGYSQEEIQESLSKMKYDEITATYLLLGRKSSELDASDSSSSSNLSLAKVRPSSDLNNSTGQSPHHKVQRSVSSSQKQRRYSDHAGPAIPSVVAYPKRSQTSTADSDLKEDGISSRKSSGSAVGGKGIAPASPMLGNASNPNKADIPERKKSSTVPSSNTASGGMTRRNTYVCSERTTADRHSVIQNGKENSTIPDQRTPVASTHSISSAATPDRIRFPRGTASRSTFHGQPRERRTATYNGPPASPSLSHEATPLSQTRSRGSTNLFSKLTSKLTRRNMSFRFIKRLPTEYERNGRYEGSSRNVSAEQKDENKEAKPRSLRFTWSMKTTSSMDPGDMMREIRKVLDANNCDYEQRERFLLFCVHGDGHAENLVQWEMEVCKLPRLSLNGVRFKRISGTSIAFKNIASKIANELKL
How it was run: as §1

[10] = molecular target: SRC (Homo sapiens, UniProt P12931)
Sequence of SRC (P12931 whole entry): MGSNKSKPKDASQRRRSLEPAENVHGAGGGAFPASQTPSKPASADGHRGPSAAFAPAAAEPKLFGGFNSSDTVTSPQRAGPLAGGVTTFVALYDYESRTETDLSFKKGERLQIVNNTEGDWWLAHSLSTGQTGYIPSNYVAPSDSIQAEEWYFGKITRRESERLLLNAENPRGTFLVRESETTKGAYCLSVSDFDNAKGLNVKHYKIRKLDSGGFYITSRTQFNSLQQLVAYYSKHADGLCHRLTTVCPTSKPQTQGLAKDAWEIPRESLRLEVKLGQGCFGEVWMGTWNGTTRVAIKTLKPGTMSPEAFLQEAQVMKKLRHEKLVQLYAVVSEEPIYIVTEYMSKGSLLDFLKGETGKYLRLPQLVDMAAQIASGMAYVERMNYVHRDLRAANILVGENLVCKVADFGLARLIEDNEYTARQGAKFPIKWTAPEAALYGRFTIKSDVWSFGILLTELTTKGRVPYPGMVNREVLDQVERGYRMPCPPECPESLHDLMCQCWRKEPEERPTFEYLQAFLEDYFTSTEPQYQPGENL
How it was run: as §1

[11] = molecular target: AKT3 (Homo sapiens, UniProt Q9Y243)
How it was run: as §1

[12] = molecular target: T4, FLT-3 (Homo sapiens, UniProt P36888)
T4 sequence (P36888 27-993): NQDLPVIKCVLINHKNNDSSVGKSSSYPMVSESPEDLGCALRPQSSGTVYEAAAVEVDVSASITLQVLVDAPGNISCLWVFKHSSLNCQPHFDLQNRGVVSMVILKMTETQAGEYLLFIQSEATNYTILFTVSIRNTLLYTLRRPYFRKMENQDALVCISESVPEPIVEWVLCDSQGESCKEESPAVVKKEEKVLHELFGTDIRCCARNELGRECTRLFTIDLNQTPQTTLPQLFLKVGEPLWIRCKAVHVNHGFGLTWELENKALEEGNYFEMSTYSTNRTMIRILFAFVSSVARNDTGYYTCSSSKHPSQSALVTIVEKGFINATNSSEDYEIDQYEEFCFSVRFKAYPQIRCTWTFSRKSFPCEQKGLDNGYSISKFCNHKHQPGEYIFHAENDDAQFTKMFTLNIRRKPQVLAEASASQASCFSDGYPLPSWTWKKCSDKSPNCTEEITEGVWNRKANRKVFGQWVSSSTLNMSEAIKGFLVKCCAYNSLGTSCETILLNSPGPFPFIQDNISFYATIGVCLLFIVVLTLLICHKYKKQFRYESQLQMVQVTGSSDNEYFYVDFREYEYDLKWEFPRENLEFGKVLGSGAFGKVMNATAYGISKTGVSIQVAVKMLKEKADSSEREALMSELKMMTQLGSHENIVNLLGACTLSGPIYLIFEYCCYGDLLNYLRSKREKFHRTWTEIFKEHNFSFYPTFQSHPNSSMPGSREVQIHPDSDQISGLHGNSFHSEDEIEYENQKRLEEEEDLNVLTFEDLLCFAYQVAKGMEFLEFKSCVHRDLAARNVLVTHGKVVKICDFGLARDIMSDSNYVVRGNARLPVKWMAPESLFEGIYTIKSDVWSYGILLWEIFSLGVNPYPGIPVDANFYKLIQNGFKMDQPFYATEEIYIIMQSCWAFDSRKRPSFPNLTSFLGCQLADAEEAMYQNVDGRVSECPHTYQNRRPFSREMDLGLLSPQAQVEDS
How it was run: as §1

| SMILES | Activity [1] | Activity [2] | Activity [3] | Activity [9] | Activity [10] | other results |
| --- | --- | --- | --- | --- | --- | --- |
| CN1CCN(c2ccc(Nc3ccnc4ccc(-c5ccccc5-c5ccccc5)cc34)cc2)CC1 [6-(biphenyl-2-yl)-N-(4-(4-methylpiperazin-1-yl)phenyl)quinolin-4-amine] |  | ABL | PRAK |  |  | Activity [4]: LCK; Activity [5]: LYNA; Activity [6]: NEK2 |
| CN1CCN(c2ccc(Nc3ccnc4ccc(-c5cc6ccccc6s5)cc34)cc2)CC1 [6-(benzo[b]thiophen-2-yl)-N-(4-(4-methylpiperazin-1-yl)phenyl)quinolin-4-amine] | MAPKAPK2 |  |  | C-TAK1 | SRC |  |
| CN1CCN(c2ccc(Nc3ccnc4ccc(-c5cccc(O)c5)cc34)cc2)CC1 [3-(4-(4-(4-methylpiperazin-1-yl)phenylamino)quinolin-6-yl)phenol] | MAPKAPK2 | ABL1 | PRAK |  | SRC | Activity [11]: AKT3; Activity [4]: LCK |

Continued, in another order:

| Activity [1] | Activity [2] | Activity [3] | Activity [9] | Activity [10] | SMILES | other results |
| --- | --- | --- | --- | --- | --- | --- |
| MAPKAPK2 | ABL1 | PRAK |  |  | CN1CCN(c2ccc(Nc3ccnc4ccc(-c5csc6ccccc56)cc34)cc2)CC1 [6-(benzo[b]thiophen-3-yl)-N-(4-(4-methylpiperazin-1-yl)phenyl)quinolin-4-amine] |  |
| MAPKAPK2 |  |  |  |  | COc1ccc(-c2ccc3nccc(Nc4ccc(N5CCN(CC(=O)O)CC5)cc4)c3c2)cc1 [2-(4-(4-(6-(4-methoxyphenyl)quinolin-4-ylamino)phenyl)piperazin-1-yl)acetic acid] | Activity [7]: PDGFR-α |
|  |  |  | C-TAK1 | SRC | CN1CCN(c2ccc(Nc3ccnc4ccc(-c5ccc(OCc6ccccc6)cc5)cc34)cc2)CC1 [6-(4-(benzyloxy)phenyl)-N-(4-(4-methylpiperazin-1-yl)phenyl)quinolin-4-amine] | Activity [8]: BMX |
| MAPKAPK2 |  | PRAK | C-TAK1 |  | CN1CCN(c2ccc(Nc3ccnc4ccc(-c5cccc(Cl)c5Cl)cc34)cc2)CC1 [6-(2,3-dichlorophenyl)-N-(4-(4-methylpiperazin-1-yl)phenyl)quinolin-4-amine] | Activity [5]: LYNA |
| MAPKAPK2 |  |  |  |  | O=C(O)CN1CCN(c2ccc(Nc3ccnc4ccc(-c5ccccc5)cc34)cc2)CC1 [2-(4-(4-(6-phenylquinolin-4-ylamino)phenyl)piperazin-1-yl)acetic acid] | Activity [12]: FLT-3; Activity [7]: PDGFR-α |
